# Reference: ChEMBL document CHEMBL1201862, “PubChem BioAssay data set” (2004)
# The source made the active and inactive calls. Cut-off read from the data, not from the text of the source, for most assays here: actives have a measured EC50 and inactives only a lower limit.
# Key:
# [1] = biological target: T1, Polyadenylate-binding protein 1 (Homo sapiens, UniProt P11940); test: MLLE binding blockers, Cy5 peptide tracer – biochemical, fluorescence polarization, Cy5-PAM2 peptide, secondary, miRNA deadenylation inhibitor project, dose response (AID 602260); assay type: functional; settings: read-out: IC50_Mean
# [2] = biological target: T2, Corticotropin-releasing factor receptor 2/Corticotropin-releasing factor-binding protein (Homo sapiens, UniProt P24387+Q13324); test: activators of CRF receptor 2 with binding protein – uHTS hits, confirmation (AID 602473); assay type: functional; settings: read-out: EC50_Mean
# T2 sequence (Q13324 whole entry): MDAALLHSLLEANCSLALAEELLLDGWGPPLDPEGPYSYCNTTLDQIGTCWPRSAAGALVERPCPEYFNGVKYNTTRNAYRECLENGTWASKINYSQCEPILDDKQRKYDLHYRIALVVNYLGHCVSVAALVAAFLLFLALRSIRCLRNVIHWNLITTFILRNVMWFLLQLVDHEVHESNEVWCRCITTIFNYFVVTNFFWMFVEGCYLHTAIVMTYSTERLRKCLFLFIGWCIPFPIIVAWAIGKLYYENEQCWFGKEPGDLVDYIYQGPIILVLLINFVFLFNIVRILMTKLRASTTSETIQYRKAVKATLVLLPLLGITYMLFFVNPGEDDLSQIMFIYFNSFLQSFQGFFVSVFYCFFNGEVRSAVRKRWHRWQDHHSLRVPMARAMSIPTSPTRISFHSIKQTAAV
# T2 sequence (P24387 whole entry): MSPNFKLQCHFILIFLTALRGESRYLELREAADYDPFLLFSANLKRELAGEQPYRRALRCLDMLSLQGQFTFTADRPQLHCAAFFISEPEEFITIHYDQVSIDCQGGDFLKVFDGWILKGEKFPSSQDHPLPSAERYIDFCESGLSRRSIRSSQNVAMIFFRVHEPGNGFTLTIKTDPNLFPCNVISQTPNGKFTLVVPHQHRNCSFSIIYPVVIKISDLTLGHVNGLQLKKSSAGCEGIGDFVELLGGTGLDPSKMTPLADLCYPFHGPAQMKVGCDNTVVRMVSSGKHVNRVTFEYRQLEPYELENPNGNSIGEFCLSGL
# [3] = biological target: T2, Corticotropin-releasing factor receptor 2/Corticotropin-releasing factor-binding protein; test: Dose Response confirmation of uHTS hits for small molecule antagonists of the CRF-binding protein and CRF-R2 receptor complex.; assay type: functional; settings: read-out: IC50_Mean
# [4] = biological target: T1, Polyadenylate-binding protein 1; test: MLLE domain peptide-binding blockers, IC50 – biochemical, fluorescence polarization, FITC-PAM2 peptide, dose response (AID 602259); assay type: functional; settings: read-out: IC50_Mean
# [5] = biological target: T3, Carboxy-terminal domain RNA polymerase II polypeptide A small phosphatase 1 (Homo sapiens, UniProt Q9GZU7); test: CTDSP1 inhibitors, concentration-response, biochemical, absorbance readout, ultra-high-throughput screen actives (AID 540297); assay type: functional
# T3 sequence (Q9GZU7 whole entry): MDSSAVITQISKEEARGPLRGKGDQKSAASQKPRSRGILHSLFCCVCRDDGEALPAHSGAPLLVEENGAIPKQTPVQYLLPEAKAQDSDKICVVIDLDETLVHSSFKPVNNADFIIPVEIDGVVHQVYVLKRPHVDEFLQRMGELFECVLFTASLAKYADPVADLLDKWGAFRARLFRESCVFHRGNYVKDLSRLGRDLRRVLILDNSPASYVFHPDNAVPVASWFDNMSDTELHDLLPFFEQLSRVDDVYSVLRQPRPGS
# BJ [6] = test: BJ-TERT fibroblast viability loss – cell-based, RAS-independent, luminescence, dose response (AID 1933); assay type: functional; settings: Homo sapiens
# [7] = DRD fibroblast viability loss – cell-based, non-viral oncogenic, luminescence, dose response (AID 1934); assay type: functional; settings: Homo sapiens
# BJ [8] = test: cells; assay type: functional, cell-based; settings: Homo sapiens
# BJ [9] = test: BJ-TERT-LT-ST fibroblast viability loss – cell-based, RAS-independent, luminescence, dose response (AID 1935); assay type: functional; settings: Homo sapiens;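 note: BJ fibroblasts immortalized with TERT plus LT and ST oncogenes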
# Protein skinhead-1 = biological target: T4, Protein skinhead-1 (Caenorhabditis elegans, UniProt P34707); assay type: functional
# T4 sequence (P34707 whole entry): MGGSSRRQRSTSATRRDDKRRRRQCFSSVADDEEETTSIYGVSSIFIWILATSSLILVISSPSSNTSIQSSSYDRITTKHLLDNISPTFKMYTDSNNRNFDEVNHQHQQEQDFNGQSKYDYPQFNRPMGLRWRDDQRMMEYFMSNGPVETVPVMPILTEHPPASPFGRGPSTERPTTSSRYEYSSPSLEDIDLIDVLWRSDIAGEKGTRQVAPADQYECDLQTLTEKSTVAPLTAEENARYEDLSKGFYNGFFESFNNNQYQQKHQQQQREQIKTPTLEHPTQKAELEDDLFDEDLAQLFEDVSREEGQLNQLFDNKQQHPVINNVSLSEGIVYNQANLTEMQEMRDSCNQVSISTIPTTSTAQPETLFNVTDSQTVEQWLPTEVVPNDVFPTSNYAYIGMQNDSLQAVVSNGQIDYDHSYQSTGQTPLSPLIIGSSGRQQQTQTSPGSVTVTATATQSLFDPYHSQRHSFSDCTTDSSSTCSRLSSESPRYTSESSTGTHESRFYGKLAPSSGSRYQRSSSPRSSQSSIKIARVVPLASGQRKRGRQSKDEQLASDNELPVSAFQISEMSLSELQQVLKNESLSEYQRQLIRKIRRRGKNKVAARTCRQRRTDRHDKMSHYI
# Paired box protein Pax-8 = Paired box protein Pax-8 (Homo sapiens, UniProt Q06710); test: PAX8 transcriptional activity inhibition in RMG-I – RMG-I cells, luciferase, cherry-pick, dose response (AID 687027); assay type: functional, cell-based;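 note: luciferase reporter driven by Pax8 target thyroperoxidase promoter measured by SteadyGlo luminescence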
# H4 = test: Luminescence Cell-Based Dose Response HTS to Identify Activators of 5'UTR Stem-Loop Driven Prion Protein mRNA Translation in H4 Neuroglioblastoma Cells. [Related pubchem assays: 1829 (Project Summary), 1814 (Primary HTS)]; assay type: functional; settings: Homo sapiens
# [10] = Luminescence Cell-Based Dose Response HTS to Identify Activators of Luciferase Translation or Activity in H4 […] Cells. [Related pubchem assays: 1829 (Project Summary), 1814 (Primary HTS)]; assay type: functional
# [11] = Luminescence Cell-Based Dose Confirmation HTS to Identify Activators of 5'UTR Stem-Loop Driven Alpha-Synuclein mRNA Translation in H4 Neuroglioblastoma Cells. [Related pubchem assays: 1829 (Project Summary), 1814 (Primary HTS)]; assay type: functional
# [12] = biological target: T5, RNA-binding protein pos-1 (Caenorhabditis elegans, UniProt G5EF15); test: disruptors of C. elegans POS-1 RNA interaction – biochemical, fluorescence polarization, dose response (AID 1964);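 note: purified POS-1 fused to maltose binding protein made in E. coli; potency of compounds blocking POS-1 binding to fluorescent RNA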
# T5 sequence (G5EF15 whole entry): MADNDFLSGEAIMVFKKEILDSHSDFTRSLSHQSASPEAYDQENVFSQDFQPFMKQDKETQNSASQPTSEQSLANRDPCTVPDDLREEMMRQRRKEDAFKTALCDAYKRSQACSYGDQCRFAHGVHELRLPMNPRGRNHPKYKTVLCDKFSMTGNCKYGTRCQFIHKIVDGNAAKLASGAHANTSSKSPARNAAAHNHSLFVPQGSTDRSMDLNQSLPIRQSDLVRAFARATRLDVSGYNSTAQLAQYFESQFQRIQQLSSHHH
# [13] = biological target: T6, Zinc finger protein mex-5 (Caenorhabditis elegans, UniProt Q9XUB2); test: potency of MEX-5 RNA-binding blockers – biochemical, C. elegans, fluorescence polarization, dose response (AID 1960)
# T6 sequence (Q9XUB2 whole entry): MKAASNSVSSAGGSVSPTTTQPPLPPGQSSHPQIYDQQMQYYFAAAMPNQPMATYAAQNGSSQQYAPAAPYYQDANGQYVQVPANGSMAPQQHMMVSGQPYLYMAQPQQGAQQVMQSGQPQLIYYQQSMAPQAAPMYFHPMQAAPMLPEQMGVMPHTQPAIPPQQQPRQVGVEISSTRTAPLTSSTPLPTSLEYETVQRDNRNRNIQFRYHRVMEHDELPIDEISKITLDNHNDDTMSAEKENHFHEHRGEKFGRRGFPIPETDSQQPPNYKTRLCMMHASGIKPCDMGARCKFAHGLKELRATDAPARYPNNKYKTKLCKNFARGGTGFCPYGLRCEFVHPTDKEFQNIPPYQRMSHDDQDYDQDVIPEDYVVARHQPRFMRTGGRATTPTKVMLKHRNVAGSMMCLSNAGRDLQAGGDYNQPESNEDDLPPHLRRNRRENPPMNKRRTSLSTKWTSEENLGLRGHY
# T1 sequence (P11940 whole entry): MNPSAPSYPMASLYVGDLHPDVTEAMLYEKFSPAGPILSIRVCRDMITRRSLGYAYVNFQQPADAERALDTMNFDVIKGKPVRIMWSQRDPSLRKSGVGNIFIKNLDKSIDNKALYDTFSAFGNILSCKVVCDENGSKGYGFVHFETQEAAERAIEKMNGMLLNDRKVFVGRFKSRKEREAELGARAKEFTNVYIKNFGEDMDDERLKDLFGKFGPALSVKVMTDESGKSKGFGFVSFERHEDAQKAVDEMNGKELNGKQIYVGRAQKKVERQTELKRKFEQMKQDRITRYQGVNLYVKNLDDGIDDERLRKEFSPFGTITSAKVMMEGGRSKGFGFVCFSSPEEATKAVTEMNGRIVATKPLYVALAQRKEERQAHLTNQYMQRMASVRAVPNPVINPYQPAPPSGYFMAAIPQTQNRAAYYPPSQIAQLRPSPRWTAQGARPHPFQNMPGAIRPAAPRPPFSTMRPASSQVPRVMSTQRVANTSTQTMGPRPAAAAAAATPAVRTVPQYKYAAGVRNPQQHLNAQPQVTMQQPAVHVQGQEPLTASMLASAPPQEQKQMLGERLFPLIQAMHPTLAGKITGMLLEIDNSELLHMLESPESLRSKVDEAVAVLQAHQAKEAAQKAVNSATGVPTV
# Chain of Paired box protein Pax-8 (Q06710 whole entry): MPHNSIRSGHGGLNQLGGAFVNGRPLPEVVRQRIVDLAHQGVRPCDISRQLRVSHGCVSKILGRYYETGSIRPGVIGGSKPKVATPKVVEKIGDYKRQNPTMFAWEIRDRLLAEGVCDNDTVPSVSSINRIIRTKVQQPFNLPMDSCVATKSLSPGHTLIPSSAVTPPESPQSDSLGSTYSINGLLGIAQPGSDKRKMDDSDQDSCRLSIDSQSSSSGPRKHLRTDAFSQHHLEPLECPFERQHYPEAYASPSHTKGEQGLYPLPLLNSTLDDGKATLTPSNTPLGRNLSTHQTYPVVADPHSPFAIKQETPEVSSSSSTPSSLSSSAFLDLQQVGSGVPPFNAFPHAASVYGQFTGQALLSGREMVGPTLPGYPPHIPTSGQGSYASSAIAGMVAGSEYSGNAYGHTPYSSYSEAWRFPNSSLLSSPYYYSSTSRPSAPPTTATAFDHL
structure (smiles),measurement,setting,value
CN(C(=O)CN1C(=O)/C(=C/c2ccccc2Cl)SC1=S)C1CCS(=O)(=O)C1 (stereo unspecified),IC50,[1],> 66 µM (inactive)
same,EC50,[2],> 53 µM (inactive)
same,IC50,[3],> 47.1 µM (inactive)
same,IC50,[4],> 66 µM (inactive)
O=C1c2ccccc2C(=O)N1Nc1ccc([N+](=O)[O-])cc1[N+](=O)[O-],IC50,[5],16.9 µM (active)
c1ccc(-c2cn3c(n2)-c2ccccc2C3)cc1,EC50,BJ [6],14.9 µM (active)
same,EC50,[7],11.6 µM (active)
same,EC50,BJ [8],14.3 µM (active)
same,EC50,BJ [9],> 150 µM (inconclusive)
CCOC(=O)N1CCN(C(=O)Nc2ccc(Cl)cc2)CC1,IC50,Protein skinhead-1,> 100 µM (inactive)
Cc1nc([N+](=O)[O-])c(Br)n1CC(=O)c1cccc([N+](=O)[O-])c1,EC50,BJ [6],> 150 µM (not active)
same,EC50,[7],> 150 µM (not active)
same,EC50,BJ [8],> 150 µM (not active)
same,EC50,BJ [9],> 150 µM (inconclusive)
Cc1ccc(NC(=S)NC(=O)C2CC2)c(C)c1,IC50,Protein skinhead-1,> 100 µM (inactive)
C[C@H]1CCCCO[C@@H](CN(C)C(=O)NC2CCCCC2)[C@@H](C)CN([C@@H](C)CO)C(=O)c2cc(NC(=O)Nc3ccc(C(F)(F)F)cc3)ccc2O1,AC50,Paired box protein Pax-8,2.54 µM (active)
CCC1(C)Cc2ccccc2-c2nc(NCCO)n(-c3ccc(C)cc3)c(=O)c21 (stereo unspecified),EC50,H4,> 120 µM (not active)
same,EC50,[10],> 120 µM (not active)
same,IC50,Protein skinhead-1,> 100 µM (inactive)
same,EC50,[11],> 120 µM (not active)
Cc1ccc(NC(=O)CSCC(=O)Nc2ccccc2C(=O)N2CCCCC2)cc1,IC50,Protein skinhead-1,> 100 µM (inactive)
COc1ccc(C2C(C#N)=C(N)OC3=C2C(=O)CCC3)c(OC)c1OC (stereo unspecified),EC50,[12],> 300 µM (not active)
same,EC50,[13],> 300 µM (not active)
CC(C)(C)OC(=O)NCCCCC1=CC2=CC(=O)C(C)(OC(=O)c3cnc4ccccc4n3)C(=O)C2=CO1 (stereo unspecified),EC50,[12],17.2 µM (active)
same,EC50,[13],15 µM (active)
Cn1ncc2c(NCCc3ccccc3)nc(Cl)nc21,IC50,Protein skinhead-1,> 100 µM (inactive)
